This note sets out measurements from patent US20200291018A1, “TAM KINASE INHIBITORS” (SYROS PHARMACEUTICALS, INC., priority 2017, published 2020).

One experiment addresses T1, AXL (Homo sapiens, UniProt P30530).
T1 sequence (P30530 26-894): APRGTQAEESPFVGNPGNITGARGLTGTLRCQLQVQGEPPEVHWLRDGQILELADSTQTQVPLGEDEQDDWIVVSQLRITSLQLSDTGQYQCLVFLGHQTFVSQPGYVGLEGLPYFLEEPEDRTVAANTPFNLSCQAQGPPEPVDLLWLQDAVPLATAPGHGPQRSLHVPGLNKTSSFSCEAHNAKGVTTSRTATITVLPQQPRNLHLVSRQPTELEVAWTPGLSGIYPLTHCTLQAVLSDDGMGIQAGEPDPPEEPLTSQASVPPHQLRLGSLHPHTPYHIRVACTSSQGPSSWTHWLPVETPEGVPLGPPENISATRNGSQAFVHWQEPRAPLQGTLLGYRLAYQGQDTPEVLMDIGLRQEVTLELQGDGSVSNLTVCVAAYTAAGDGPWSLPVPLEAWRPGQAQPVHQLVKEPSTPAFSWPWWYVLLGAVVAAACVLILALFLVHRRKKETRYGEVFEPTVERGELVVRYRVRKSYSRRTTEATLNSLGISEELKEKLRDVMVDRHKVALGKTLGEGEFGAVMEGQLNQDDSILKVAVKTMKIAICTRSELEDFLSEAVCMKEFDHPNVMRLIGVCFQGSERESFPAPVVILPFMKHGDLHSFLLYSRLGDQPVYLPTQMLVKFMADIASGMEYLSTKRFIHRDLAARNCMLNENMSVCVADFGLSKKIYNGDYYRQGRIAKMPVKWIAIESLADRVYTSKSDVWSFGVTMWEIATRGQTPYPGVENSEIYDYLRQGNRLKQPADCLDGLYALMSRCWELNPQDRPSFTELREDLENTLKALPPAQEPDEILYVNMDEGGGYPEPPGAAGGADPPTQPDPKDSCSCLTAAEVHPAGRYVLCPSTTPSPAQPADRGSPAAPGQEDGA
In words: TR-FRET kinase activity assay, AXL. The class given is biochemical. The settings on record: ATP at Km, 60 minutes. A digest of the protocol:
(§1)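 Enzyme, fluorescent-labeled peptide substrate and compound were mixed, then ATP was added at each enzyme's Km. Buffer was 50 mM HEPES pH 7.5, 10 mM MgCl2, 1 mM EGTA, 0.01% Brij 35, 1 mM DTT at RT. After 60 min, EDTA quench and 30 min with Eu-anti-phosphotyrosine-site antibody; TR-FRET read gave IC50.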

The next experiment concerns the target T2, FLT3 (Homo sapiens, UniProt P36888).
T2 sequence (P36888 27-993): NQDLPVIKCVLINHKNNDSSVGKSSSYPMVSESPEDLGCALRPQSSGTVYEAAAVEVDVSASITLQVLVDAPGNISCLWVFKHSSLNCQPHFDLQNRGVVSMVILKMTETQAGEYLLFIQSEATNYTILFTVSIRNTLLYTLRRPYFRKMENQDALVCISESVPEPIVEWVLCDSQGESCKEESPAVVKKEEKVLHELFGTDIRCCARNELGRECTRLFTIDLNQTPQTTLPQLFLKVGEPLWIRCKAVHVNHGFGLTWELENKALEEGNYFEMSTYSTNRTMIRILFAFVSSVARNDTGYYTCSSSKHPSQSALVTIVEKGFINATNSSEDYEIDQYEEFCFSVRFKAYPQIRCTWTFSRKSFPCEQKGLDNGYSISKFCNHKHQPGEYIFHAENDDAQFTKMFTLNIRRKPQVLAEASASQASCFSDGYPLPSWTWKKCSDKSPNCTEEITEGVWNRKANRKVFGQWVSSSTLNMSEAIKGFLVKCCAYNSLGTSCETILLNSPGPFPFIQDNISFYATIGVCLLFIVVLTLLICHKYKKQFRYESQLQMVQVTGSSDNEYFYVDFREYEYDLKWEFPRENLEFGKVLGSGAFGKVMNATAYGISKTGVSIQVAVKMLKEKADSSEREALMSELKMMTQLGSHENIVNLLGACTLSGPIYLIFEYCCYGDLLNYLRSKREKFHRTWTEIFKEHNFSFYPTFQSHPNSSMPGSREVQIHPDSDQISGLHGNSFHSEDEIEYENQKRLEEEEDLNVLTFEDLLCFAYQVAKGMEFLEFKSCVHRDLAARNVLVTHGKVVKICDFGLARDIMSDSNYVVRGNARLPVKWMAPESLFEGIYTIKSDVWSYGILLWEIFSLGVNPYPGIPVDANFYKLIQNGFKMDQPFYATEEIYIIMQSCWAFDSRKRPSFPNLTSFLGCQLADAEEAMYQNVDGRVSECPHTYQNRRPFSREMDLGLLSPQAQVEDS
The experiment is described as follows: TR-FRET kinase activity assay, FLT3. The settings on record: ATP at Km, 60 minutes. Type of experiment: biochemical. A digest of the protocol: as §1

As to `CCC(CC)Nc1ncc2c(=O)n(C3CCNCC3)cc([C@H]3CC[C@H](O)CC3)c2n1` [Compound 120], the IC50 against AXL and against FLT3 was 1000 to 10000 nM each time.

In the case of `COC[C@H](C)Nc1ncc2c(OC3CCOCC3)ncc([C@H]3CC[C@H](O)CC3)c2n1` [Compound 122, (1S,4r)-4-(2-(((S)-1-methoxypropan-2-yl)amino)-5-((tetrahydro-2H-pyran-4-yl)oxy)pyrido[4,3-d]pyrimidin-8-yl)cyclohexan-1-ol], the IC50 against AXL fell in the range of 100 to 1000 nM; against FLT3, 1000 to 10000 nM.

`CCCCNc1ncc2c(NC3CCOCC3)ncc([C@H]3CC[C@H](O)CC3)c2n1` [Compound 124]: the IC50 at AXL and on FLT3 was no more than 100 nM throughout.

Turning to `CCCCNc1ncc2c(OCCOC)ncc([C@H]3CC[C@H](O)CC3)c2n1` [Compound 125], the IC50 against AXL was 100 to 1000 nM; on FLT3, no more than 100 nM.

For `CCC[C@H](C)Nc1ncc2c(=O)n(C3CCNCC3)cc([C@H]3CC[C@H](O)CC3)c2n1` [Compound 126], the IC50 against AXL lay in the range of 100 to 1000 nM; at FLT3, 1000 to 10000 nM.

Take `COCCN1C(C)(C)CC(Oc2ncc([C@H]3CC[C@H](O)CC3)c3nc(N[C@@H](C)CC(F)(F)F)ncc23)CC1(C)C` [Compound 355]: the half-inhibitory concentration (IC50) was no more than 100 nM against AXL and 100 to 1000 nM on FLT3.

On to `Cc1ncc([C@H]2CC[C@H](O)CC2)c2nc(N[C@@H](C)CC(F)(F)F)ncc12` [Compound 356], for which the IC50 lay within 100 to 1000 nM against AXL and 1000 to 10000 nM against FLT3.

In the case of `COC[C@H](C)Nc1ncc2c(O[C@H]3CCOC3)ncc([C@H]3CC[C@H](O)CC3)c2n1` [Compound 357], the IC50 at AXL and against FLT3 was 1000 to 10000 nM throughout.

As to `COC[C@H](C)Nc1ncc2c(OC3CCOCC3)ncc(C3CCC(F)(F)CC3)c2n1` [Compound 358], the IC50 against AXL and on FLT3 was 1000 to 10000 nM throughout.

In the case of `CCOc1ncc([C@H]2CC[C@H](O)CC2)c2nc(N[C@@H](C)CC(F)(F)F)ncc12` [Compound 359], the IC50 on AXL and against FLT3 was 100 to 1000 nM throughout.

As for `C[C@@H](CC(F)(F)F)Nc1ncc2c(O[C@H]3C[C@@H](O)C3)ncc([C@H]3CC[C@H](O)CC3)c2n1` [Compound 360], the IC50 against AXL and on FLT3 was 100 to 1000 nM each time.

On to `COC[C@H](C)Nc1ncc2c(OC3CC(C)(C)N(C(C)=O)C(C)(C)C3)ncc([C@H]3CC[C@H](O)CC3)c2n1` [Compound 361], for which the IC50 against AXL and against FLT3 was 1000 to 10000 nM throughout.

Turning to `COC[C@H](C)Nc1ncc2c(Nc3ccncc3)ncc([C@H]3CC[C@H](O)CC3)c2n1` [Compound 362], the IC50 on AXL and at FLT3 was 1000 to 10000 nM in each case.

With `COC[C@H](C)Nc1ncc2c(Nc3cccnc3)ncc([C@H]3CC[C@H](O)CC3)c2n1` [Compound 363], the IC50 against AXL and against FLT3 was 1000 to 10000 nM each time.

Consider `C[C@@H](CC(F)(F)F)Nc1ncc2c(O[C@H]3C[C@H](O)C3)ncc([C@H]3CC[C@H](O)CC3)c2n1` [Compound 364], for which the IC50 at AXL and against FLT3 was 100 to 1000 nM in each case.

On to `C[C@H](Nc1ncc2c(OC3CCOCC3)ncc([C@H]3CC[C@H](O)CC3)c2n1)C(F)F` [Compound 365], for which the IC50 on AXL is 100 to 1000 nM; at FLT3, 1000 to 10000 nM.

Take `COC[C@H](C)Nc1ncc2c(O[C@@H]3CCN(C)C3)ncc([C@H]3CC[C@H](O)CC3)c2n1` [Compound 366]: the IC50 on AXL and against FLT3 was 1000 to 10000 nM in each case.

For the compound `CC[C@@H](C)Nc1ncc2c(OC3CC(C)(C)N(C)C(C)(C)C3)ncc([C@H]3CC[C@H](O)CC3)c2n1` [Compound 367], the IC50 against AXL was no more than 100 nM; on FLT3, 100 to 1000 nM.

With `COC[C@H](C)Nc1ncc2c(O[C@H]3CCN(C)C3)ncc([C@H]3CC[C@H](O)CC3)c2n1` [Compound 368], the values for the IC50 against AXL and on FLT3 were 1000 to 10000 nM and greater than 10000 nM, respectively.

Consider `COCCN1CCC(Oc2ncc([C@H]3CC[C@H](O)CC3)c3nc(N[C@@H](C)CC(F)(F)F)ncc23)CC1` [Compound 369], for which the values for the IC50 against AXL and against FLT3 were 100 to 1000 nM and 1000 to 10000 nM, respectively.

Consider `C[C@@H](CC(F)(F)F)Nc1ncc2c(OC3C[C@H]4CC[C@@H](C3)N4C)ncc([C@H]3CC[C@H](O)CC3)c2n1` (some centres unmarked) [Compound 370], for which the results for the IC50 on AXL and at FLT3 were no more than 100 nM and 100 to 1000 nM, respectively.

Regarding `COC[C@H](C)Nc1ncc2c(OC3C[C@@H](C)N(C)[C@@H](C)C3)ncc([C@H]3CC[C@H](O)CC3)c2n1` (some centres unmarked) [Compound 371], the IC50 against AXL fell in the range of 100 to 1000 nM; on FLT3, 1000 to 10000 nM.

Turning to `COC[C@H](C)Nc1ncc2c(Nc3ccnc(C)c3)ncc([C@H]3CC[C@H](O)CC3)c2n1` [Compound 372], the IC50 against AXL and against FLT3 was 1000 to 10000 nM throughout.

As for `C[C@@H](CC(F)(F)F)Nc1ncc2c(OC3CCN(c4ncccn4)CC3)ncc([C@H]3CC[C@H](O)CC3)c2n1` [Compound 373], the IC50 against AXL lay within 100 to 1000 nM; against FLT3, 1000 to 10000 nM.

In the case of `COC[C@H](C)Nc1ncc2c(Nc3ccc(C)nc3)ncc([C@H]3CC[C@H](O)CC3)c2n1` [Compound 374], the IC50 against AXL and against FLT3 was 1000 to 10000 nM each time.

Consider `Cc1nccc(N2CCC(Oc3ncc([C@H]4CC[C@H](O)CC4)c4nc(N[C@@H](C)CC(F)(F)F)ncc34)CC2)n1` [Compound 375], for which the IC50 against AXL and on FLT3 was 100 to 1000 nM throughout.

As to `COCCN1C(C)(C)CC(Oc2ncc([C@H]3CC[C@H](O)CC3)c3nc(N[C@@H](C)CC#N)ncc23)CC1(C)C` [Compound 376], the IC50 fell in the range of 100 to 1000 nM on AXL and 1000 to 10000 nM against FLT3.

`COCC(=O)N1C(C)(C)CC(Oc2ncc([C@H]3CC[C@H](O)CC3)c3nc(N[C@@H](C)CC(F)(F)F)ncc23)CC1(C)C` [Compound 377]: the IC50 against AXL and at FLT3 was 1000 to 10000 nM each time.

For the compound `C[C@@H](CC(F)(F)F)Nc1ncc2c(OC3CCN([C@@H]4CCOC4)CC3)ncc([C@H]3CC[C@H](O)CC3)c2n1` [Compound 378], the values for the IC50 on AXL and against FLT3 were 100 to 1000 nM and 1000 to 10000 nM, respectively.

In the case of `COCCN1C(C)(C)CC(Oc2ncc([C@H]3CC[C@H](O)CC3)c3nc(NC4(C)CC4)ncc23)CC1(C)C` [Compound 379], the IC50 against AXL was no more than 100 nM; against FLT3, 100 to 1000 nM.

As for `COCCN1C(C)(C)CC(Oc2ncc([C@H]3CC[C@H](O)CC3)c3nc(N[C@@H](C)CCO)ncc23)CC1(C)C` [Compound 380], the IC50 against AXL is 100 to 1000 nM; against FLT3, 1000 to 10000 nM.

For `COCCN1C(C)(C)CC(Oc2ncc([C@H]3CC[C@H](O)CC3)c3nc(N[C@@H](C)CF)ncc23)CC1(C)C` [Compound 381], the IC50 is no more than 100 nM against AXL and 1000 to 10000 nM on FLT3.

`C[C@@H](CF)Nc1ncc2c(OC3CC(C)(C)N(C)C(C)(C)C3)ncc([C@H]3CC[C@H](O)CC3)c2n1` [Compound 382]: the results for the IC50 against AXL and against FLT3 were 100 to 1000 nM and 1000 to 10000 nM, respectively.

Regarding `C[C@@H](CC(F)(F)F)Nc1ncc2c(OC3CCN([C@H]4CCOC4)CC3)ncc([C@H]3CC[C@H](O)CC3)c2n1` [Compound 383], the IC50 on AXL fell in the range of 100 to 1000 nM; against FLT3, 1000 to 10000 nM.
